Source: paper PMC9096165 (Frontiers in Pharmacology, 2022)

Experiments:
[1] = test system: panel of GPCRs, enzymes, ion channels, transporters, and nuclear receptors; experiment: Safety screen off-target panel (Eurofins Cerep SafetyScreen44); type: binding; settings: tested at 10 μM; all the receptors studied
Protocol: Selectivity assays were performed at Eurofins Cerep as a contract service. A summary of the protocol and the reference for the assays are listed on the Eurofins Cerep website at (https://www.eurofinsdiscoveryservices.com/catalogmanagement/viewItem/SafetyScreen44-Panel-Cerep/P270). The tested targets are listed below:
GPCRs: A2A (agonist radioligand), α1A (antagonist radioligand), α2A (antagonist radioligand), β1 (agonist radioligand), β2 (agonist radioligand), BK1 (antagonist and agonist radioligand), BK2 (antagonist and agonist radioligand), CB1 (antagonist and agonist radioligand), CB2 (antagonist and agonist radioligand), CCK1 (CCKA) (agonist radioligand), D1 (antagonist radioligand), D2 (antagonist and agonist radioligand), D3 (antagonist and agonist radioligand), ETA (agonist radioligand), H1 (antagonist radioligand), H2 (antagonist radioligand), M1 (antagonist radioligand), M2 (antagonist and agonist radioligand), M3 (antagonist radioligand), NK1 (agonist radioligand), δ (DOP) (agonist radioligand), κ(KOP) (agonist radioligand), µ(MOP) (agonist radioligand), ORL1 (agonist radioligand), 5-HT1A (agonist radioligand), 5-HT1B (antagonist radioligand), 5-HT2A (agonist radioligand), 5-HT2B (agonist radioligand), and V1a (agonist radioligand). […]

[2] = biological target: Nav1.7 (Homo sapiens, UniProt Q15858); experiment: Ion channel assay, agonist and antagonist mode; type: biochemical; settings: up to 100 μM (maximum tested concentration)
Nav1.7, sequence (Q15858 whole entry): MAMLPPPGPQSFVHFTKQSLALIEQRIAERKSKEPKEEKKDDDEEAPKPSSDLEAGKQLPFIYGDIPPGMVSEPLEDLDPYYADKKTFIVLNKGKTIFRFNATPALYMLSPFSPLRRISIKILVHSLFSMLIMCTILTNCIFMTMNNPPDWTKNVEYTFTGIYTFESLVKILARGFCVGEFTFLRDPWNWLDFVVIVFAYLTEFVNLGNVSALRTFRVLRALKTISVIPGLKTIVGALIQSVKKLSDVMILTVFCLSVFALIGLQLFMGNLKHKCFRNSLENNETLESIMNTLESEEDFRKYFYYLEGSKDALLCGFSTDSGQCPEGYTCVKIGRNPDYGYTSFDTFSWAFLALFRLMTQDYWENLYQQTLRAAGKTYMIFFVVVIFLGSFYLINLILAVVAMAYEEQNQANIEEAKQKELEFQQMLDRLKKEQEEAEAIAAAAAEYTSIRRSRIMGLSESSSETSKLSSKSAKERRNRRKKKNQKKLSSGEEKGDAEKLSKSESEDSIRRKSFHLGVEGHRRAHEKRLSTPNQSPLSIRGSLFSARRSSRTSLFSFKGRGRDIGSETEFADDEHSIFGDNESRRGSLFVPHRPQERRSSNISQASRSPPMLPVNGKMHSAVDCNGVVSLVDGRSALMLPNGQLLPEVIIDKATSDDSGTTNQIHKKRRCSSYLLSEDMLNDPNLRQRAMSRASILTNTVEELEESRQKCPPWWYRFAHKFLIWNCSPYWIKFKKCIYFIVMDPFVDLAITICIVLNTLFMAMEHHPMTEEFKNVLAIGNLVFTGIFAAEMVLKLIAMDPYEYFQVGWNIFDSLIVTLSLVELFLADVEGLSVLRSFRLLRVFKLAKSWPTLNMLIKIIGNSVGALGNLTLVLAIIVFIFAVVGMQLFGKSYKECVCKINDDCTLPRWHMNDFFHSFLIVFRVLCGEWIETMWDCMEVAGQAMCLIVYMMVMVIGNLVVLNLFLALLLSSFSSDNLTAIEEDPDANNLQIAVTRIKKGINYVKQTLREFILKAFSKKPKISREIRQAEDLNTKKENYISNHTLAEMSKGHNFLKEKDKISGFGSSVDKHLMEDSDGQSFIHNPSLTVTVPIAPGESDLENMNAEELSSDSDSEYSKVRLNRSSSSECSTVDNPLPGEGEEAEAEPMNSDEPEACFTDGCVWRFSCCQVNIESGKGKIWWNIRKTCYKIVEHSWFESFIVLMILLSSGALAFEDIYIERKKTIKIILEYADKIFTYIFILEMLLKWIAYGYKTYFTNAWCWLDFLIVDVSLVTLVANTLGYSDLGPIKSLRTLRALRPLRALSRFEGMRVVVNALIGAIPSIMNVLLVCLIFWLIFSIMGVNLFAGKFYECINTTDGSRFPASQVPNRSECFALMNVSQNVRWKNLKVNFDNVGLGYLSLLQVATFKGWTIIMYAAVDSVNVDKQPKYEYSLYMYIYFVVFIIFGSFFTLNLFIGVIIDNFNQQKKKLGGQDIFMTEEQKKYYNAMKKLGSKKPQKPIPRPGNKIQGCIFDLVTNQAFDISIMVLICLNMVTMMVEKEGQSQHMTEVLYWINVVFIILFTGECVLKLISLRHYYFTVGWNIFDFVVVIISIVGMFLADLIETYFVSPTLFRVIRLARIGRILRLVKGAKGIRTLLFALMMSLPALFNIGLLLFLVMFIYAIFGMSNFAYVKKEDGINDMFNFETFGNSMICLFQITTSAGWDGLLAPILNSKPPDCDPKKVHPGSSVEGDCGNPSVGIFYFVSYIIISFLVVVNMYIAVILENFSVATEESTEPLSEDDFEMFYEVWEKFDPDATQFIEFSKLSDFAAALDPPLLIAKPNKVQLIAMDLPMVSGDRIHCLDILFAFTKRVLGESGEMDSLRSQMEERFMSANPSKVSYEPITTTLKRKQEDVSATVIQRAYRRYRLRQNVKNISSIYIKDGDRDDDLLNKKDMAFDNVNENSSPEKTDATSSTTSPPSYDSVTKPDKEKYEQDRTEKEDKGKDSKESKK
Protocol: (§1) In addition, DF2755A was tested on TRPM8, TRPV1, TRPV4, TRPA1, and Nav1.7 ion channels in agonist and antagonist mode at eight concentrations in quadruplicate (100 μM was the highest tested concentration).

[3] = biological target: TRPA1 (Homo sapiens, UniProt O75762); experiment: Ion channel assay, agonist and antagonist mode; type: biochemical; settings: up to 100 μM (maximum tested concentration)
TRPA1, sequence (O75762 whole entry, species assumed): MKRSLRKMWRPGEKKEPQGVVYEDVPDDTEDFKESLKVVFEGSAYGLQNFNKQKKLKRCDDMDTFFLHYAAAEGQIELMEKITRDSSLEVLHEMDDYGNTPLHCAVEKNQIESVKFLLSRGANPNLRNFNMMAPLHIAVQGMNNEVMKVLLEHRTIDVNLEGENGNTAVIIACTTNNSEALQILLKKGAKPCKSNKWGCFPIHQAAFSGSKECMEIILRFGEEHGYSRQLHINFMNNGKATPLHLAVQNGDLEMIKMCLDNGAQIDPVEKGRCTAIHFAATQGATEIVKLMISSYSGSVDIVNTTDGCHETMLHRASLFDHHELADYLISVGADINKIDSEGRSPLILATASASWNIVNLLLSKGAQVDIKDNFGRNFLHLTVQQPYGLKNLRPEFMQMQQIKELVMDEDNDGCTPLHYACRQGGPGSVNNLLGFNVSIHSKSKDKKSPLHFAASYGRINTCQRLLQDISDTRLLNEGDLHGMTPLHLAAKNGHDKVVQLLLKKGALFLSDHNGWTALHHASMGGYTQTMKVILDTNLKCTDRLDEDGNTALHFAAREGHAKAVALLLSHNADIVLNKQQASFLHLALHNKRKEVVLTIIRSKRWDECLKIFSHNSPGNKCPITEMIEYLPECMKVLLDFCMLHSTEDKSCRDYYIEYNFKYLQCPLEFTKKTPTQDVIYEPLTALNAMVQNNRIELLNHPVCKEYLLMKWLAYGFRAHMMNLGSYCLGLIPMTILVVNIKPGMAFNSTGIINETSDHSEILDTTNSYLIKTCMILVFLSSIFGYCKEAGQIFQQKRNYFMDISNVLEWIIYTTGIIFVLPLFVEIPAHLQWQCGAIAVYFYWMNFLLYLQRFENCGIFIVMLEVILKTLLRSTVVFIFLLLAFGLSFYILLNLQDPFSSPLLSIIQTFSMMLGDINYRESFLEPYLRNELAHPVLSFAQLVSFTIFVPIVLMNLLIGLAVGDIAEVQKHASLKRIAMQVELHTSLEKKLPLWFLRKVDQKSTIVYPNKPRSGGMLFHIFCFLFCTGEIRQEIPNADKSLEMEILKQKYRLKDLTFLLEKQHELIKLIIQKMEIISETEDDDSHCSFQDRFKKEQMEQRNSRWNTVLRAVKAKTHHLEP
Protocol: as §1

[4] = biological target: TRPM8 (Homo sapiens, UniProt Q7Z2W7); experiment: Ion channel assay, agonist and antagonist mode; type: biochemical; settings: up to 100 μM (maximum tested concentration)
Protocol: as §1

[5] = biological target: TRPV1 (Homo sapiens, UniProt Q8NER1); experiment: Ion channel assay, agonist and antagonist mode; type: biochemical; settings: up to 100 μM (maximum tested concentration)
TRPV1 (Homo sapiens, UniProt Q8NER1), sequence (Q8NER1 whole entry, species assumed): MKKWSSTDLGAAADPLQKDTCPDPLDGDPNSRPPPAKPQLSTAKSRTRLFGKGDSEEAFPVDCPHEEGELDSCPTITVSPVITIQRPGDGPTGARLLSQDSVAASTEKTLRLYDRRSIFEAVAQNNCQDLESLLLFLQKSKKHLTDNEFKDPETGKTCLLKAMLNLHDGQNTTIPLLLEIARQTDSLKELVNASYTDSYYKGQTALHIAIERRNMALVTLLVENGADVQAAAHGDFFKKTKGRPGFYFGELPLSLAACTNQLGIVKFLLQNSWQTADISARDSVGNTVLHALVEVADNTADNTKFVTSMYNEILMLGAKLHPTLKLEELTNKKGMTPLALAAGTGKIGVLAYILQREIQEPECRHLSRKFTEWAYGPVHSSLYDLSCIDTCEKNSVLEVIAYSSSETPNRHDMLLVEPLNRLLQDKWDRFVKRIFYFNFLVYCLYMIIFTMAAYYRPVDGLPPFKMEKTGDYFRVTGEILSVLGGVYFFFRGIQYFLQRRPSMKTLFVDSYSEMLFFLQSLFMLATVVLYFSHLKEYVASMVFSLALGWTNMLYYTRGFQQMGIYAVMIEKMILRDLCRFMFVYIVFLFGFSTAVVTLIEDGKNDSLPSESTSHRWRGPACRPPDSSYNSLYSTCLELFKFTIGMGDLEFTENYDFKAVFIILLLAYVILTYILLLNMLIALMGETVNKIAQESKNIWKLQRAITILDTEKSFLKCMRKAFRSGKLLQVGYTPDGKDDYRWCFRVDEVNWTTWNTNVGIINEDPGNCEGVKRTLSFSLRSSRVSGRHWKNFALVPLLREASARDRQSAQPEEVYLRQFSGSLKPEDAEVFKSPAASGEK
Protocol: as §1

[6] = biological target: TRPV4 (Homo sapiens, UniProt Q9HBA0); experiment: Ion channel assay, agonist and antagonist mode; type: biochemical; settings: up to 100 μM (maximum tested concentration)
TRPV4, sequence (Q9HBA0 whole entry, species assumed): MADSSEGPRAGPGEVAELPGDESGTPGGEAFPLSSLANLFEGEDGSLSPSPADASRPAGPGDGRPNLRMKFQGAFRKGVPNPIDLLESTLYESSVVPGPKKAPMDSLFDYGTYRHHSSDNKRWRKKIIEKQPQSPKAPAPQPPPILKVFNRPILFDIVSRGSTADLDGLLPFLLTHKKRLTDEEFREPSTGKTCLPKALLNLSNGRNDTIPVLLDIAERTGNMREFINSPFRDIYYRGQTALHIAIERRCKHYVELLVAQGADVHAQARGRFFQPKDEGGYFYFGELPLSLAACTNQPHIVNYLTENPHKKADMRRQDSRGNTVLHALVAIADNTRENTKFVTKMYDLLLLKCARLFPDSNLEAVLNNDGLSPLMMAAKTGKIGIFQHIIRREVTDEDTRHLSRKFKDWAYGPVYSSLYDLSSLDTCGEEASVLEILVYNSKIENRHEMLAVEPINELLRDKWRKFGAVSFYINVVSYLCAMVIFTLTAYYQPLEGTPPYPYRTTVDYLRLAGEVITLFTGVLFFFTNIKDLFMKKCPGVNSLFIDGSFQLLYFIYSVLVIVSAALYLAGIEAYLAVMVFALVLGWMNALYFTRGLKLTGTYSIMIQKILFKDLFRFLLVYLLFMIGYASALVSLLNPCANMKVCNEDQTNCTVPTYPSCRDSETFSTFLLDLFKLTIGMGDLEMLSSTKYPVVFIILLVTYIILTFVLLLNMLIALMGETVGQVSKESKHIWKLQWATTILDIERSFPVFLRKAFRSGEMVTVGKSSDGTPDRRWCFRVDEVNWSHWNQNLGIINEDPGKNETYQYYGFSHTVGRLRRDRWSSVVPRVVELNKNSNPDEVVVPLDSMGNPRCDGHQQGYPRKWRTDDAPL
Protocol: as §1

[7] = Tissue distribution by quantitative whole-body autoradiography; type: in vivo, female SD rats; settings: at tmax (2 h after dosing), oral 20 mg/kg
Protocol: Tissue distribution was performed by quantitative whole-body autoradiography (QWBA). At the selected time points (2, 6, 12, 24, 48, 120, and 168 h post-oral administration of the compound), animals (n = 6) were killed using an overdose of carbon dioxide, followed by immediate snap freezing in a hexane/solid carbon dioxide mixture. Each carcass was subjected to WBA using procedures based on the work of [Waddell and Brinkhous (1967)]. Sections were taken at up to six different levels of the rat body to include as many tissues as possible (a minimum of 30). Distribution of radioactivity in the sections was determined and quantified by bioimage analysis.

[8] = test system: TRPV1; experiment: TRPV1 mRNA expression in F11 cells (RT PCR); type: cell-based; settings: DF2755A 1 µM + CYP 100 nM
Excerpt: (§2) For these experiments, cells at 18th passage were used.
(§3) Triplicate samples were run for each gene.

[9] = test system: TRPV1; experiment: TRPV1 protein level in F11 cells (Western blotting); type: cell-based; settings: DF2755A 1 µM + CYP 100 nM
Excerpt: as §2, §3
Control and treated F11 cells were collected and lysed in an ice-cold RIPA buffer containing protease and phosphatase inhibitor cocktail (Sigma-Aldrich, United States). The extracted proteins were quantified using BCA assay (Thermo, United States). NuPAGE lithium dodecyl sulfate sample buffer (Cat#NP007, Thermo, United States) and NuPAGE sample reducing agent (Cat#NP0004, Thermo, United States) were added to the samples and then put in the Thermoblock (Eppendorf, United Kingdom) at 75°C for 10 min. Protein lysates (30 μg) were separated on NuPAGE bis–tris glycine gradient precast gel (Cat#NP0321PK2, Invitrogen, United States) and electroblotted on a PVDF membrane (Cat#IPVH00010, Millipore, United States) using a semi-dry system (Thermo, United States). Non-specific binding sites were blocked by blocking solution (Cat#000105, Invitrogen, United States) for 15 min at RT. […] The relative densities of the immunoreactive bands were determined and normalized with respect to actin, using Fiji software. […]

[10] = test system: CXCL1; experiment: CXCL1 mRNA expression in F11 cells (RT PCR); type: cell-based; settings: DF2755A 1 µM + CYP 100 nM
Excerpt: as §2, §3

[11] = test system: CXCR1; experiment: CXCR1 mRNA expression in F11 cells (RT PCR); type: cell-based; settings: DF2755A 1 µM + CYP 100 nM
Excerpt: as §2, §3

[12] = test system: CXCR2; experiment: CXCR2 mRNA expression in F11 cells (RT PCR); type: cell-based; settings: DF2755A 1 µM + CYP 100 nM
Excerpt: as §2, §3

[13] = test system: CXCR1; set-up: method as in Lopes et al., 2016; settings: ref Lopes et al., 2016; cited from earlier work
[14] = test system: CXCR2; set-up: method as in Lopes et al., 2016; settings: ref Lopes et al., 2016; cited from earlier work

SMILES: C[C@H](C(=O)[O-])c1ccc(Nc2nc(C(F)(F)F)cs2)cc1.[Na+] [DF2755A, sodium (2S)-2-(4-{[4-(trifluoromethyl)-1,3-thiazol-2-yl]amino}phenyl)propanoate]
- off-target effects in the safety screen assay [1]: neglectable effects
- activity in agonism and antagonism mode [2]: no activity
- activity in agonism and antagonism mode [3]: no activity
- activity in agonism and antagonism mode [4]: no activity
- activity in agonism and antagonism mode [5]: no activity
- activity in agonism and antagonism mode [6]: no activity
- radioactivity concentration, blood content into the heart [7]: 38.3 μg equivalents DF2755A g^−1 of tissue
- radioactivity concentration, kidney as a whole [7]: 29.6 μg equivalents DF2755 A/g^−1 of tissue
- radioactivity concentration, kidney cortex [7]: 33.2 μg equivalents DF2755A g^−1 of tissue
- radioactivity concentration, liver [7]: 41.7 μg equivalents DF2755A g^−1 of tissue
- radioactivity concentration, small intestine contents [7]: 180 μg equivalents DF2755A g^−1 of tissue
- radioactivity concentration, stomach contents [7]: 51.8 μg equivalents DF2755A g^−1 of tissue
- radioactivity concentration, urinary bladder contents [7]: 63.0 μg DF2755A g^−1 of tissue
- radioactivity concentration, urinary bladder wall [7]: 24.3 μg equivalents DF2755A g^−1 of tissue
- share of the administered dose in urinary bladder contents [7]: 8%
- share of the administered dose in urinary bladder wall [7]: 3%
- TRPV1 mRNA expression in CYP-exposed cells [8]: restored TRPV1 mRNA expression to control values
- TRPV1 protein level in CYP-exposed cells [9]: restored to control expression
- CXCL1 mRNA expression in CYP-exposed cells [10]: restored the mRNA expression of all the targets to control values
- CXCR1 mRNA expression in CYP-exposed cells [11]: restored the mRNA expression of all the targets to control values
- CXCR2 mRNA expression in CYP-exposed cells [12]: restored the mRNA expression of all the targets to control values
- IC50 [13]: 4.2 nM
- IC50 [14]: 2.1 nM
